Data as given in US10681909B2, “Herbicidal triazoles” (FMC Corporation, priority 2014, dated 2020).

Experiments:
[1] = test system: barnyardgrass; assay: Test A preemergence; type: in vivo, Echinochloa crus-galli; details: 0 to 100 scale (0 no effect, 100 complete control)
Summary of the method: (§1)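 Plant seeds in loam soil blended with sand, then apply test chemical preemergence as a directed soil spray; in parallel, spray potted seedlings (one- to two-leaf, 2 to 10 cm) postemergence. Both treatments use a non-phytotoxic solvent mixture with surfactant.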

[2] = test system: foxtail, giant; assay: Test A preemergence; type: in vivo, Setaria faberii; details: 0 to 100 scale (0 no effect, 100 complete control)
Summary of the method: as §1

[3] = test system: barnyardgrass; assay: Test A postemergence; type: in vivo, Echinochloa crus-galli; details: 0 to 100 scale (0 no effect, 100 complete control), approx. 10 d
Summary of the method: as §1

[4] = test system: corn; assay: Test A postemergence; type: in vivo, Zea mays; details: 0 to 100 scale (0 no effect, 100 complete control), approx. 10 d
Summary of the method: as §1

[5] = test system: rice; assay: Test B flooded paddy test; type: in vivo, Oryza sativa; details: 250 g ai/ha, applied to paddy water at 2-leaf stage, visual rating after 13 to 15 d, scale 0 (no effect) to 100 (complete control)
Summary of the method: (§2)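 Pots were flooded to 3 cm above the soil at treatment, and compounds were applied directly into the paddy water. That depth was held throughout. After 13 to 15 d in a greenhouse, plants were rated visually against untreated controls.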

[6] = test system: ducksalad; assay: Test B flooded paddy test; type: in vivo, Heteranthera limosa; details: 250 g ai/ha, applied to paddy water at 2-leaf stage, visual rating after 13 to 15 d, scale 0 (no effect) to 100 (complete control)
Summary of the method: as §2

[7] = test system: velvetleaf; assay: Test C preemergence; type: in vivo, Abutilon theophrasti; details: for Velvetleaf plant response rating (0 to 100): Preemergence, visual rating after 13 to 15 d
From the text: Seeds of plant species selected from blackgrass (Alopecurus myosuroides), ryegrass, Italian (Italian ryegrass, Lolium multiflorum), wheat (winter wheat, Triticum aestivum), galium (catchweed bedstraw, Galium aparine), corn (Zea mays), crabgrass, large (large crabgrass, Digitaria sanguinalis), foxtail, giant, (giant foxtail, Setaria faberii), johnsongrass (Sorghum halepense), lambsquarters (Chenopodium album), morningglory (Ipomoea coccinea), nutsedge, yellow (yellow nutsedge, Cyperus esculentus), pigweed (Amaranthus retroflexus), ragweed (common ragweed, Ambrosia elatior), soybean (Glycine max), barnyardgrass (Echinochloa crus-galli), oilseed rape (Brassica napus), waterhemp (common waterhemp, Amaranthus rudis), and velvetleaf (Abutilon theophrasti) were planted into a blend of loam soil and sand and treated preemergence with test chemicals formulated in a non-phytotoxic solvent mixture which included a surfactant. At the same time, plants selected from these crop and weed species and also chickweed (common chickweed, Stellaria media), oat, wild (wild oat, Avena fatua), and kochia (Kochia scoparia), were planted in pots containing Sunshine Redi-Earth® planting medium comprising spaghnum peat moss, vermiculite, starter nutrients and dolomitic limestone and treated with postemergence applications of test chemicals formulated in the same manner. Plants ranged in height from 2 to 18 cm (1- to 4-leaf stage) for postemergence treatments. […] A dash (-) response means no test result.

[8] = test system: crabgrass, large; assay: Test C postemergence; type: in vivo, Digitaria sanguinalis
Summary of the method: (§3)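 Seeds were planted in loam soil plus sand and sprayed preemergence. In parallel, potted plants in a peat-based medium were sprayed postemergence at 2 to 18 cm (1- to 4-leaf stage). Compounds were formulated in non-phytotoxic solvent with surfactant.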

[9] = test system: johnsongrass; assay: Test C postemergence; type: in vivo, Sorghum halepense
Summary of the method: as §3

[10] = test system: morningglory; assay: Test C postemergence; type: in vivo, Ipomoea coccinea
Summary of the method: as §3

[11] = test system: pigweed; assay: Test C postemergence; type: in vivo, Amaranthus retroflexus
Summary of the method: as §3

[12] = test system: ragweed; assay: Test C postemergence; type: in vivo, Ambrosia elatior
Summary of the method: as §3

[13] = test system: velvetleaf; assay: Test C postemergence; type: in vivo, Abutilon theophrasti
Summary of the method: as §3

[14] = test system: kochia; assay: Test C postemergence; type: in vivo, Kochia scoparia
Summary of the method: as §3

## COc1nc(-c2ccccc2)nn1Cc1ccnc(C(F)(F)F)c1 [Compound 32]
[1]; 125 g ai/ha
  Plant response rating, Barnyardgrass: 20
[1]; 500 g ai/ha, approx. 10 d
  Plant response rating, Barnyardgrass: 80
[2]; 125 g ai/ha
  Plant response rating, Foxtail, Giant: 90
[2]; 500 g ai/ha, approx. 10 d
  Plant response rating, Foxtail, Giant: 100
[3]; 125 g ai/ha
  Plant response rating, Barnyardgrass: 30
[3]; 500 g ai/ha
  Plant response rating, Barnyardgrass: 60
[4]; 125 g ai/ha
  Plant response rating, Corn: 10
[4]; 500 g ai/ha
  Plant response rating, Corn: 30
[5]
  Plant response rating, Rice, Flood: 0
[6]
  Plant response rating, Ducksalad, Flood: 30
[7]; 31 g ai/ha
  Velvetleaf plant response rating (0 to 100): 20
[7]; 62 g ai/ha
  Velvetleaf plant response rating (0 to 100): 10
[7]; Velvetleaf, preemergence, 250 g ai/ha
  Plant response rating (scale of 0 to 100 where 0 is no effect and 100 is complete control): 60
[8]; 31 g ai/ha
  Plant response rating (scale of 0 to 100 where 0 is no effect and 100 is complete control): 5
[8]; 62 g ai/ha
  Plant response rating (scale of 0 to 100 where 0 is no effect and 100 is complete control): 10
[8]; 125 g ai/ha
  Plant response rating (scale of 0 to 100 where 0 is no effect and 100 is complete control): 25
[8]; 250 g ai/ha
  Plant response rating (scale of 0 to 100 where 0 is no effect and 100 is complete control): 25
[9]; 31 g ai/ha
  Plant response rating (scale of 0 to 100 where 0 is no effect and 100 is complete control): 10
[9]; 62 g ai/ha
  Plant response rating (scale of 0 to 100 where 0 is no effect and 100 is complete control): 10
[9]; 125 g ai/ha
  Plant response rating (scale of 0 to 100 where 0 is no effect and 100 is complete control): 10
[9]; 250 g ai/ha
  Plant response rating (scale of 0 to 100 where 0 is no effect and 100 is complete control): 10
[10]; 31 g ai/ha
  Plant response rating (scale of 0 to 100 where 0 is no effect and 100 is complete control): 80
[10]; 62 g ai/ha
  Plant response rating (scale of 0 to 100 where 0 is no effect and 100 is complete control): 40
[10]; 125 g ai/ha
  Plant response rating (scale of 0 to 100 where 0 is no effect and 100 is complete control): 80
[10]; 250 g ai/ha
  Plant response rating (scale of 0 to 100 where 0 is no effect and 100 is complete control): 65
[11]; 31 g ai/ha
  Plant response rating (scale of 0 to 100 where 0 is no effect and 100 is complete control): 98
[11]; 62 g ai/ha
  Plant response rating (scale of 0 to 100 where 0 is no effect and 100 is complete control): 95
[11]; 125 g ai/ha
  Plant response rating (scale of 0 to 100 where 0 is no effect and 100 is complete control): 98
[11]; 250 g ai/ha
  Plant response rating (scale of 0 to 100 where 0 is no effect and 100 is complete control): 98
[12]; 31 g ai/ha
  Plant response rating (scale of 0 to 100 where 0 is no effect and 100 is complete control): 35
[12]; 62 g ai/ha
  Plant response rating (scale of 0 to 100 where 0 is no effect and 100 is complete control): 70
[12]; 125 g ai/ha
  Plant response rating (scale of 0 to 100 where 0 is no effect and 100 is complete control): 60
[12]; 250 g ai/ha
  Plant response rating (scale of 0 to 100 where 0 is no effect and 100 is complete control): 60
[13]; 31 g ai/ha
  Plant response rating (scale of 0 to 100 where 0 is no effect and 100 is complete control): 15
[13]; 62 g ai/ha
  Plant response rating (scale of 0 to 100 where 0 is no effect and 100 is complete control): 10
[13]; 125 g ai/ha
  Plant response rating (scale of 0 to 100 where 0 is no effect and 100 is complete control): 20
[13]; 250 g ai/ha
  Plant response rating (scale of 0 to 100 where 0 is no effect and 100 is complete control): 20
[14]; 31 g ai/ha
  Plant response rating (scale of 0 to 100 where 0 is no effect and 100 is complete control): 80
[14]; 62 g ai/ha
  Plant response rating (scale of 0 to 100 where 0 is no effect and 100 is complete control): 90
[14]; 125 g ai/ha
  Plant response rating (scale of 0 to 100 where 0 is no effect and 100 is complete control): 90
[14]; 250 g ai/ha
  Plant response rating (scale of 0 to 100 where 0 is no effect and 100 is complete control): 90
